The target in test [1] is adenosine A2B receptor (Homo sapiens (Human), UniProt P29275). In words: Adenosine receptor activity assay (Table 1), A2B activity. It is filed as biochemical. The conditions noted are these: for IC50: read-out: Ave A2B cAMP IC50.
In test [2] the target is adenosine A2A receptor (Homo sapiens (Human), UniProt P29274). Nature of the test: Adenosine receptor activity assay (Table 1), A2A activity. The conditions noted are these: read-out: Ave A2A cAMP IC50. It is filed as biochemical.
The mark [3] stands for this setting: A2A activity to A2B activity (A2A/A2B).
Where [4] appears, read: A2A activity to the A2B activity, A2A/A2B.

adenosine A2B receptor, sequence (P29275 whole entry): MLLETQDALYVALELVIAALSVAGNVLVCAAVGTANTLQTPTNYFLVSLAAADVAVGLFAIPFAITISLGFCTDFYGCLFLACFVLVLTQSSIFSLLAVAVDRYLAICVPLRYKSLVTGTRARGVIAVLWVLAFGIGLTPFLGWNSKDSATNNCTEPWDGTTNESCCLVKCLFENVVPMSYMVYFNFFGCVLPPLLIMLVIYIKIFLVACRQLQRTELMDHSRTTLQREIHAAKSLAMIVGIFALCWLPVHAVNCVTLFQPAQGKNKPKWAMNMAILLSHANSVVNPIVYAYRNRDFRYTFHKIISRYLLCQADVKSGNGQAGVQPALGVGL
adenosine A2A receptor, sequence (P29274 whole entry): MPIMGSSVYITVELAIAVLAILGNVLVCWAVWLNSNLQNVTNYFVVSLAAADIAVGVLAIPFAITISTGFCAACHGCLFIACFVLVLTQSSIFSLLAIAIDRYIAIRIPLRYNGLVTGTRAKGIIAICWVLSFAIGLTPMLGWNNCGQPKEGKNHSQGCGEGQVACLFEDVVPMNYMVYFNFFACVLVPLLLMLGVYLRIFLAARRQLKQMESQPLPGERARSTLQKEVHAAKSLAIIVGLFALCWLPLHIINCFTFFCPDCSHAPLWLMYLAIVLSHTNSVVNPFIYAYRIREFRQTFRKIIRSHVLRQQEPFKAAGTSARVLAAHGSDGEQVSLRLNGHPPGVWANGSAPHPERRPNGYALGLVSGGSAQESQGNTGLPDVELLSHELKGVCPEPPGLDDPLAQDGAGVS

Usually IC50 stands for the concentration that gives 50% inhibition. Take `C[C@H](Nc1nc(C(=O)N2CC[C@@H](O)C2)c2sc(N)cc2n1)c1cccnc1` [Example Z220, (6-Amino-2-(((S)-1-(pyridin-3-yl)ethyl)amino)thieno[3,2-d]pyrimidin-4-yl)((R)-3-hydroxypyrrolidin-1-yl)methanone]: the Ratio in test [1] (setting [3]) is reported as 44.45. Besides, the IC50 in test [1] is 100 to 500 nM; in test [2] it was more than 500 nM.

As for `CCC(NC(=O)c1nc(N[C@@H](C)c2cccnc2)nc2ccsc12)c1cccnc1` (stereo partly drawn) [Example Z24, 2-(((S)-1-(Pyridin-3-yl)ethyl)amino)-N-(1-(pyridin-3-yl)propyl)thieno[3,2-d]pyrimidine-4-carboxamide], the Ratio in test [1] (setting [3]) is 2.92. Besides, the concentration for half-maximal inhibition (IC50) in test [1] was 100 to 500 nM; in test [2] it was more than 500 nM.

For `COc1ccc(CNc2nc(C(=O)NC3CCC3)c3sccc3n2)cn1` [Example Z434, N-Cyclobutyl-2-(((6-methoxypyridin-3-yl)methyl)amino)thieno[3,2-d]pyrimidine-4-carboxamide], in test [1] (setting [4]), the Ratio was 0.08. Moreover, the IC50 in test [1] was more than 500 nM; in test [2], 50 to 100 nM.

For `O=C(c1nc(NCc2cnccn2)nc2ccsc12)N1CC[C@H](O)C1` [Example Z156, (S)-(3-Hydroxypyrrolidin-1-yl)(2-((pyrazin-2-ylmethyl)amino)thieno[3,2-d]pyrimidin-4-yl)methanone], the Ratio in test [1] (setting [3]) was found to be 14.60. Moreover, the half-maximal inhibitory concentration (IC50) in test [1] and in test [2] was more than 500 nM throughout.

`O=C(c1nc(NCCc2ccc(O)cc2)nc2ccsc12)N1CCCC1` [Example Z359, (2-((4-Hydroxyphenethyl)amino)thieno[3,2-d]pyrimidin-4-yl)(pyrrolidin-1-yl)methanone]: in test [1] (setting [3]), the Ratio was determined as 2.57. Further, the IC50 in test [1] and in test [2] was 100 to 500 nM in each case.

As to `COCC(Nc1nc(C(=O)N[C@H]2C[C@@H](O)C2)c2sccc2n1)c1cccnc1` (stereo partly drawn) [Example Z218, N-((1s,3s)-3-Hydroxycyclobutyl)-2-((2-methoxy-1-(pyridin-3-yl)ethyl)amino)thieno[3,2-d]pyrimidine-4-carboxamide], in test [1] (setting [3]), the Ratio came out at 8.99. Besides, the results for the IC50 in test [1] and in test [2] were 10 to 50 nM and 100 to 500 nM, respectively.

As to `C[C@H](Nc1nc(C(=O)NCc2cncc(C(F)(F)F)c2)c2sccc2n1)c1ccccn1` [Example Z200, (S)-2-((1-(Pyridin-2-yl)ethyl)amino)-N-((5-(trifluoromethyl)pyridin-3-yl)methyl)thieno[3,2-d]pyrimidine-4-carboxamide], the Ratio in test [1] (setting [3]) stood at 1.81. Moreover, the concentration for half-maximal inhibition (IC50) in test [1] and in test [2] was 100 to 500 nM each time.

Consider `O=C(c1nc(NCc2cccc(F)c2)nc2ccsc12)N1CC[C@@H](O)C1` [Example Z81, (R)-(2-((3-Fluorobenzyl)amino)thieno[3,2-d]pyrimidin-4-yl)(3-hydroxypyrrolidin-1-yl)methanone], for which the Ratio in test [1] (setting [3]) stood at 2.77. Further, the IC50 in test [1] fell in the range of 50 to 100 nM; in test [2], 100 to 500 nM.

With `C[C@H](Nc1nc(C(=O)N2CC(CN(C)C(=O)CC(C)(C)C)C2)c2sccc2n1)c1cncc(F)c1` [Example Z550, (S)—N-((1-(2-((1-(5-Fluoropyridin-3-yl)ethyl)amino)thieno[3,2-d]pyrimidine-4-carbonyl)azetidin-3-yl)methyl)-N,3,3-trimethylbutanamide], in test [1] (setting [4]), the Ratio came to 4.79. In addition, the half-inhibitory concentration (IC50) lay in the range of 10 to 50 nM in test [1] and 50 to 100 nM in test [2].

Regarding `C[C@H](Nc1nc(C(=O)NCC2CCC2)c2sccc2n1)c1ccccn1` [Example Z193, (S)—N-(Cyclobutylmethyl)-2-((1-(pyridin-2-yl)ethyl)amino)thieno[3,2-d]pyrimidine-4-carboxamide], the Ratio in test [1] (setting [3]) worked out at 4.46. Moreover, the IC50 in test [1] lay in the range of 10 to 50 nM; in test [2], 50 to 100 nM.

For the compound `C[C@H](Nc1nc(C(=O)NCCN2CCCC2)c2sccc2n1)c1cncc(F)c1` [Example Z357, (S)-2-((1-(5-Fluoropyridin-3-yl)ethyl)amino)-N-(2-(pyrrolidin-1-yl)ethyl)thieno[3,2-d]pyrimidine-4-carboxamide], the Ratio in test [1] (setting [3]) was found to be 3.03. The IC50 in test [1] and in test [2] was more than 500 nM throughout.

(Values after patent US11254686B1 (Corvus Pharmaceuticals, Inc., priority 2017, dated 2022).)
